Source: ChEMBL document CHEMBL1201862, “PubChem BioAssay data set” (2004)
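These data come from cells grown in 96-well plates and exposed to compound for 48 hours at five concentrations. At the GI50, growth is halved.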 The source made the active and inactive calls. No stated cut-off is given here; in the data, active = GI50 up to about 1.1 µM and inactive = higher.

Columns and labels:
Experiment in all cases: DTP human tumour cell line panel, 48 h
HL-60 = tested on: HL-60
MCF7 = tested on: MCF7
UO-31 = tested on: UO-31
HCT-116 = tested on: HCT-116
SR = tested on: SR
OVCAR-8 = tested on: OVCAR-8
K562 = tested on: K562
TK-10 = tested on: TK-10
786-0 = tested on: 786-0
T47D = tested on: T47D
SNB-19 = tested on: SNB-19
NCI-H522 = tested on: NCI-H522
RPMI-8226 = tested on: RPMI-8226
CCRF-CEM = tested on: CCRF-CEM
OVCAR-5 = tested on: OVCAR-5
PC-3 = tested on: PC-3
NCI/ADR-RES = tested on: NCI/ADR-RES
SW-620 = tested on: SW-620
COLO 205 = tested on: COLO 205
LOX IMVI = tested on: LOX IMVI
OVCAR-4 = tested on: OVCAR-4
MDA-MB-435 = tested on: MDA-MB-435
A498 = tested on: A498
U-251 = tested on: U-251
EKVX = tested on: EKVX
M14 = tested on: M14
UACC-257 = tested on: UACC-257
SK-MEL-28 = tested on: SK-MEL-28
CAKI-1 = tested on: CAKI-1
MDA-MB-231 = tested on: MDA-MB-231
Malme-3M = tested on: Malme-3M
UACC-62 = tested on: UACC-62
DU-145 = tested on: DU-145
SNB-75 = tested on: SNB-75
HOP-62 = tested on: HOP-62
SK-MEL-2 = tested on: SK-MEL-2
ACHN = tested on: ACHN
NCI-H226 = tested on: NCI-H226
SF-539 = tested on: SF-539
SF-268 = tested on: SF-268
SK-MEL-5 = tested on: SK-MEL-5
HCT-15 = tested on: HCT-15
NCI-H23 = tested on: NCI-H23
IGROV-1 = tested on: IGROV-1
HT-29 = tested on: HT-29
A549 = tested on: A549
Hs-578T = tested on: Hs-578T
MOLT-4 = tested on: MOLT-4
NCI-H460 = tested on: NCI-H460
SF-295 = tested on: SF-295
SN12C = tested on: SN12C
HOP-92 = tested on: HOP-92
HCC 2998 = tested on: HCC 2998
SK-OV-3 = tested on: SK-OV-3
MDA-N = tested on: MDA-N
KM12 = tested on: KM12
OVCAR-3 = tested on: OVCAR-3
RXF 393 = tested on: RXF 393

Measured: GI50

CC(=O)c1ccc(NC(=O)CSc2nc(C)nc3c2sc(=S)n3-c2ccccc2)cc1
inactive: HL-60 2.99 µM | MCF7 > 10 µM | UO-31 9.42 µM | HCT-116 3 µM | SR 2.2 µM | OVCAR-8 > 10 µM | K562 > 10 µM

[O-][n+]1c2ccccc2[n+]([O-])c2ccccc21
inactive: TK-10 > 100 µM | 786-0 > 100 µM | T47D 35.3 µM | SNB-19 86.3 µM | NCI-H522 > 100 µM | RPMI-8226 16.8 µM | CCRF-CEM 4.32 µM | OVCAR-5 > 100 µM | PC-3 > 100 µM | NCI/ADR-RES > 100 µM | SW-620 > 100 µM | COLO 205 15.6 µM | LOX IMVI > 100 µM | OVCAR-4 > 100 µM | MDA-MB-435 > 100 µM | A498 > 100 µM | U-251 > 100 µM | EKVX > 100 µM | M14 33.1 µM | UACC-257 > 100 µM | HL-60 11.5 µM | SK-MEL-28 > 100 µM | CAKI-1 > 100 µM | MDA-MB-231 44.5 µM | Malme-3M > 100 µM | MCF7 48.1 µM | UACC-62 > 100 µM | DU-145 45.4 µM | SNB-75 > 100 µM | UO-31 > 100 µM | HOP-62 > 100 µM | SK-MEL-2 > 100 µM | ACHN 61 µM | NCI-H226 > 100 µM | HCT-116 > 100 µM | SF-539 > 100 µM | SF-268 > 100 µM | SK-MEL-5 37.5 µM | NCI-H23 24 µM | IGROV-1 46.5 µM | HT-29 86.3 µM | SR 13 µM | A549 38 µM | OVCAR-8 86.3 µM | Hs-578T > 100 µM | MOLT-4 2.74 µM | NCI-H460 30.1 µM | K562 > 100 µM | SF-295 > 100 µM | SN12C > 100 µM
68.2 µM: HCT-15

CCS(=O)(=O)c1c2cc(OC)ccc2nc2ccc(OC)cc12
> 100 µM: HCT-15
inactive: TK-10 > 100 µM | 786-0 > 100 µM | T47D > 100 µM | SNB-19 > 100 µM | NCI-H522 > 100 µM | HOP-92 > 100 µM | CCRF-CEM > 100 µM | OVCAR-5 > 100 µM | PC-3 > 100 µM | NCI/ADR-RES > 100 µM | SW-620 > 100 µM | COLO 205 > 100 µM | LOX IMVI > 100 µM | OVCAR-4 > 100 µM | MDA-MB-435 > 100 µM | A498 > 100 µM | U-251 > 100 µM | EKVX > 100 µM | M14 > 100 µM | UACC-257 > 100 µM | HL-60 > 100 µM | SK-MEL-28 > 100 µM | HCC 2998 > 100 µM | CAKI-1 > 100 µM | MDA-MB-231 > 100 µM | Malme-3M > 100 µM | MCF7 > 100 µM | UACC-62 > 100 µM | DU-145 > 100 µM | SNB-75 > 100 µM | SK-OV-3 > 100 µM | MDA-N > 100 µM | UO-31 > 100 µM | HOP-62 > 100 µM | SK-MEL-2 > 100 µM | ACHN > 100 µM | NCI-H226 > 100 µM | HCT-116 > 100 µM | SF-539 26.5 µM | SF-268 > 100 µM | KM12 > 100 µM | NCI-H23 > 100 µM | IGROV-1 > 100 µM | HT-29 > 100 µM | SR > 100 µM | A549 > 100 µM | OVCAR-8 > 100 µM | MOLT-4 > 100 µM | NCI-H460 > 100 µM | OVCAR-3 > 100 µM | RXF 393 > 100 µM | K562 > 100 µM | SF-295 > 100 µM | SN12C > 100 µM

COc1ccc2c(c1)c[n+](C)c1c3cc(OC)c(OC)cc3ccc21
14 µM: HCT-15
active: NCI-H522 1.02 µM | U-251 1.02 µM
inactive: SNB-19 3.21 µM | NCI/ADR-RES > 100 µM | SW-620 1.37 µM | COLO 205 1.67 µM | LOX IMVI 1.32 µM | CAKI-1 11.9 µM | MDA-MB-231 1.42 µM | MDA-N 1.6 µM | SF-268 1.45 µM | SR 2.1 µM | A549 1.54 µM | OVCAR-8 1.22 µM | Hs-578T 2.05 µM | SN12C 1.73 µM

COc1cc2ccc3ccncc3c2cc1OC
inactive: 786-0 > 10 µM | T47D > 10 µM | RPMI-8226 > 10 µM | CCRF-CEM > 10 µM | OVCAR-5 > 10 µM | NCI/ADR-RES > 10 µM | SW-620 > 10 µM | COLO 205 > 10 µM | OVCAR-4 > 10 µM | MDA-MB-435 > 10 µM | U-251 > 10 µM | M14 > 10 µM | SK-MEL-28 > 10 µM | CAKI-1 > 10 µM | Malme-3M > 10 µM | MCF7 > 10 µM | UACC-62 > 10 µM | SNB-75 > 10 µM | SK-OV-3 > 10 µM | HOP-62 > 10 µM | SK-MEL-2 > 10 µM | ACHN > 10 µM | SF-268 > 10 µM | SK-MEL-5 > 10 µM | NCI-H23 > 10 µM | IGROV-1 > 10 µM | SR > 10 µM | A549 > 10 µM | MOLT-4 > 10 µM | NCI-H460 > 10 µM | RXF 393 > 10 µM | K562 > 10 µM
